From patent publication US12478624B2, “Heterocyclic derivatives, pharmaceutical compositions and their use in the treatment or amelioration of cancer” (Tolremo Therapeutics AG, priority 2019, dated 2025)
pEC50, pKd: −log10 of the molar value.

Key:
BRD8(1) = target: T1, BRD8(1) (Homo sapiens, UniProt Q9H0E9); test: BromoKdMAX (BROMOscan, DiscoverX); format: binding
T1 construct: T7 phage strains displaying bromodomains were grown in parallel; purchased DiscoverX; host or cells: T7 phage in an E. coli host derived from the BL21 strain
Description: (§1) A BromoKdMAX was performed at DiscoverX.
(§2) BROMOscan™ is a novel industry leading platform for identifying small molecule bromodomain inhibitors. Based on proven KINOMEscan™ technology, BROMOscan™ employs a proprietary ligand binding site-directed competition assay to quantitatively measure interactions between test compounds and bromodomains. This robust and reliable assay panel is suitable for high throughput screening and delivers quantitative ligand binding data to facilitate the identification and optimization of potent and selective small molecule bromodomain inhibitors.
(§3) For the Bromodomain assays, T7 phage strains displaying bromodomains were grown in parallel in 24-well blocks in an E. coli host derived from the BL21 strain. E. coli were grown to log-phase and infected with T7 phage from a frozen stock (multiplicity of infection=0.4) and incubated with shaking at 32° C. until lysis (90-150 minutes). The lysates were centrifuged (5,000×g) and filtered (0.2 μm) to remove cell debris. […] The liganded beads were blocked with excess biotin and washed with blocking buffer (SeaBlock (Pierce), 1% BSA, 0.05% Tween 20, 1 mM DTT) to remove unbound ligand and to reduce non-specific phage binding. […] Test compounds were prepared as 1000× stocks in 100% DMSO. Kds were determined using an 11-point 3-fold compound dilution series with one DMSO control point. […] The compounds were then diluted directly into the assays such that the final concentration of DMSO was 0.09%. All reactions performed in polypropylene 384-well plates. Each was a final volume of 0.02 ml. […] The bromodomain concentration in the eluates was measured by qPCR.

BRD1 = target: T2, BRD1 (Homo sapiens, UniProt O95696); test: BromoKdMAX (BROMOscan, DiscoverX); format: binding
T2 construct: T7 phage strains displaying bromodomains were grown in parallel; purchased DiscoverX; host or cells: T7 phage in an E. coli host derived from the BL21 strain
Description: as §1, §2, §3

BRD3(1, 2) = target: T3, BRD3(1, 2) (Homo sapiens, UniProt Q15059); test: BromoKdMAX (BROMOscan, DiscoverX); format: binding
T3 construct: T7 phage strains displaying bromodomains were grown in parallel; purchased DiscoverX; host or cells: T7 phage in an E. coli host derived from the BL21 strain
Description: as §1, §2, §3

BRDT(1, 2) = target: T4, BRDT(1, 2) (Homo sapiens, UniProt Q58F21); test: BromoKdMAX (BROMOscan, DiscoverX); format: binding
T4 construct: T7 phage strains displaying bromodomains were grown in parallel; purchased DiscoverX; host or cells: T7 phage in an E. coli host derived from the BL21 strain
Description: as §1, §2, §3

BRD7 = target: T5, BRD7 (Homo sapiens, UniProt Q9NPI1); test: BromoKdMAX (BROMOscan, DiscoverX); format: binding
T5 construct: T7 phage strains displaying bromodomains were grown in parallel; purchased DiscoverX; host or cells: T7 phage in an E. coli host derived from the BL21 strain
Description: as §1, §2, §3

PBRM1(5) = target: T6, PBRM1(5) (Homo sapiens, UniProt Q86U86); test: BromoKdMAX (BROMOscan, DiscoverX); format: binding
T6 construct: T7 phage strains displaying bromodomains were grown in parallel; purchased DiscoverX; host or cells: T7 phage grown in E. coli host derived from BL21
Description: as §1, §2, §3

TAF1(2) = target: T7, TAF1(2) (Homo sapiens, UniProt P21675); test: BromoKdMAX (BROMOscan, DiscoverX); format: binding
T7 construct: T7 phage strains displaying bromodomains were grown in parallel; purchased DiscoverX; host or cells: T7 phage grown in E. coli host derived from BL21
Description: as §1, §2, §3

CECR2 = target: T8, CECR2 (Homo sapiens, UniProt Q9BXF3); test: BromoKdMAX (BROMOscan, DiscoverX); format: binding
T8 construct: T7 phage strains displaying bromodomains were grown in parallel; purchased DiscoverX; host or cells: T7 phage grown in E. coli host derived from BL21
Description: as §1, §2, §3

PCAF = target: T9, PCAF (Homo sapiens, UniProt Q92831); test: BromoKdMAX (BROMOscan, DiscoverX); format: binding; conditions: PCAF (KAT2B)
T9 construct: T7 phage strains displaying bromodomains were grown in parallel; purchased DiscoverX; host or cells: T7 phage grown in E. coli host derived from BL21
Description: as §1, §2, §3

ATAD2B = target: T10, ATAD2B (Homo sapiens, UniProt Q9ULI0); test: BromoKdMAX (BROMOscan, DiscoverX); format: binding
T10 construct: T7 phage strains displaying bromodomains were grown in parallel; purchased DiscoverX; host or cells: T7 phage in an E. coli host derived from the BL21 strain
Description: as §1, §2, §3

WDR9(2) = target: T11, WDR9(2) (Homo sapiens, UniProt Q9NSI6); test: BromoKdMAX (BROMOscan, DiscoverX); format: binding; conditions: WDR9(2) (BRWD1)
T11 construct: T7 phage strains displaying bromodomains were grown in parallel; purchased DiscoverX; host or cells: T7 phage grown in E. coli host derived from BL21
Description: as §1, §2, §3

BRPF1 = target: T12, BRPF1 (Homo sapiens, UniProt P55201); test: BromoKdMAX (BROMOscan, DiscoverX); format: binding
T12 construct: T7 phage strains displaying bromodomains were grown in parallel; purchased DiscoverX; host or cells: T7 phage in an E. coli host derived from the BL21 strain
Description: as §1, §2, §3

GCN5L2 = target: T13, GCN5L2 (Homo sapiens, UniProt Q92830); test: BromoKdMAX (BROMOscan, DiscoverX); format: binding; conditions: GCN5L2 (KAT2A)
T13 construct: T7 phage strains displaying bromodomains were grown in parallel; purchased DiscoverX; host or cells: T7 phage grown in E. coli host derived from BL21
Description: as §1, §2, §3

BRD9 = target: T14, BRD9 (Homo sapiens, UniProt Q9H8M2); test: BromoKdMAX (BROMOscan, DiscoverX); format: binding
T14 construct: T7 phage strains displaying bromodomains were grown in parallel; purchased DiscoverX; host or cells: T7 phage in an E. coli host derived from the BL21 strain
Description: as §1, §2, §3

TRIM24(PHD, Bromo.) = target: T15, TRIM24(PHD, Bromo.) (Homo sapiens, UniProt O15164); test: BromoKdMAX (BROMOscan, DiscoverX); format: binding
T15 construct: TRIM24(PHD, Bromo.); purchased DiscoverX; host or cells: T7 phage grown in E. coli host derived from BL21
Description: as §1, §2, §3

SMARCA2 = target: T16, SMARCA2 (Homo sapiens, UniProt P51531); test: BromoKdMAX (BROMOscan, DiscoverX); format: binding
T16 construct: T7 phage strains displaying bromodomains were grown in parallel; purchased DiscoverX; host or cells: T7 phage grown in E. coli host derived from BL21
Description: as §1, §2, §3

TAF1L(2) = target: T17, TAF1L(2) (Homo sapiens, UniProt Q8IZX4); test: BromoKdMAX (BROMOscan, DiscoverX); format: binding
T17 construct: T7 phage strains displaying bromodomains were grown in parallel; purchased DiscoverX; host or cells: T7 phage grown in E. coli host derived from BL21
Description: as §1, §2, §3

BRD3(2) = target: T18, BRD3(2) (Homo sapiens, UniProt Q15059); test: BromoKdMAX (BROMOscan, DiscoverX); format: binding
T18 construct: T7 phage strains displaying bromodomains were grown in parallel; purchased DiscoverX; host or cells: T7 phage in an E. coli host derived from the BL21 strain
Description: as §1, §2, §3

BAZ2A = target: T19, BAZ2A (Homo sapiens, UniProt Q9UIF9); test: BromoKdMAX (BROMOscan, DiscoverX); format: binding
T19 construct: T7 phage strains displaying bromodomains were grown in parallel; purchased DiscoverX; host or cells: T7 phage in an E. coli host derived from the BL21 strain
Description: as §1, §2, §3

BRD8(2) = target: T20, BRD8(2) (Homo sapiens, UniProt Q9H0E9); test: BromoKdMAX (BROMOscan, DiscoverX); format: binding
T20 construct: T7 phage strains displaying bromodomains were grown in parallel; purchased DiscoverX; host or cells: T7 phage in an E. coli host derived from the BL21 strain
Description: as §1, §2, §3

BAZ2B = target: T21, BAZ2B (Homo sapiens, UniProt Q9UIF8); test: BromoKdMAX (BROMOscan, DiscoverX); format: binding
T21 construct: T7 phage strains displaying bromodomains were grown in parallel; purchased DiscoverX; host or cells: T7 phage in an E. coli host derived from the BL21 strain
Description: as §1, §2, §3

PBRM1(2) = target: T22, PBRM1(2) (Homo sapiens, UniProt Q86U86); test: BromoKdMAX (BROMOscan, DiscoverX); format: binding
T22 construct: T7 phage strains displaying bromodomains were grown in parallel; purchased DiscoverX; host or cells: T7 phage grown in E. coli host derived from BL21
Description: as §1, §2, §3

TRIM24(Bromo.) = target: T23, TRIM24(Bromo.) (Homo sapiens, UniProt O15164); test: BromoKdMAX (BROMOscan, DiscoverX); format: binding
T23 construct: T7 phage strains displaying bromodomains were grown in parallel; purchased DiscoverX; host or cells: T7 phage grown in E. coli host derived from BL21
Description: as §1, §2, §3

SMARCA4 = target: T24, SMARCA4 (Homo sapiens, UniProt P51532); test: BromoKdMAX (BROMOscan, DiscoverX); format: binding
T24 construct: T7 phage strains displaying bromodomains were grown in parallel; purchased DiscoverX; host or cells: T7 phage grown in E. coli host derived from BL21
Description: as §1, §2, §3

BRD3(1) = target: T25, BRD3(1) (Homo sapiens, UniProt Q15059); test: BromoKdMAX (BROMOscan, DiscoverX); format: binding
T25 construct: T7 phage strains displaying bromodomains were grown in parallel; purchased DiscoverX; host or cells: T7 phage in an E. coli host derived from the BL21 strain
Description: as §1, §2, §3

BRPF3 = target: T26, BRPF3 (Homo sapiens, UniProt Q9ULD4); test: BromoKdMAX (BROMOscan, DiscoverX); format: binding
T26 construct: T7 phage strains displaying bromodomains were grown in parallel; purchased DiscoverX; host or cells: T7 phage in an E. coli host derived from the BL21 strain
Description: as §1, §2, §3

FALZ = target: T27, FALZ (Homo sapiens, UniProt Q12830); test: BromoKdMAX (BROMOscan, DiscoverX); format: binding; conditions: FALZ (BPTF)
T27 construct: T7 phage strains displaying bromodomains were grown in parallel; purchased DiscoverX; host or cells: T7 phage grown in E. coli host derived from BL21
Description: as §1, §2, §3

BRDT(2) = target: T28, BRDT(2) (Homo sapiens, UniProt Q58F21); test: BromoKdMAX (BROMOscan, DiscoverX); format: binding
T28 construct: T7 phage strains displaying bromodomains were grown in parallel; purchased DiscoverX; host or cells: T7 phage in an E. coli host derived from the BL21 strain
Description: as §1, §2, §3

ATAD2A = target: T29, ATAD2A (Homo sapiens, UniProt Q6PL18); test: BromoKdMAX (BROMOscan, DiscoverX); format: binding
T29 construct: T7 phage strains displaying bromodomains were grown in parallel; purchased DiscoverX; host or cells: T7 phage in an E. coli host derived from the BL21 strain
Description: as §1, §2, §3

BRDT(1) = target: T30, BRDT(1) (Homo sapiens, UniProt Q58F21); test: BromoKdMAX (BROMOscan, DiscoverX); format: binding
T30 construct: T7 phage strains displaying bromodomains were grown in parallel; purchased DiscoverX; host or cells: T7 phage in an E. coli host derived from the BL21 strain
Description: as §1, §2, §3

OPM-2 = test: Assay 2: multiple myeloma cellular efficacy, PrestoBlue cell proliferation/survival; format: cell-based; conditions: Homo sapiens, 96 h, OPM-2 cells, 4 days
Summary of the method: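 Cells seeded at 10000/well and exposed to a compound dose range or vehicle for 4 days, then stained with PrestoBlue for 2 h at 37 °C. Fluorescence was background-subtracted and normalized to vehicle; EC50 came from a four-parameter variable-slope fit against log concentration.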

T22 sequence (Q86U86 177-287 limits assumed): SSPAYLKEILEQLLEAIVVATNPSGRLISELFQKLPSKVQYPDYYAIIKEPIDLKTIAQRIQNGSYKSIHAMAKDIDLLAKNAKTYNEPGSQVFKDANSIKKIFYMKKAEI
T8 sequence (Q9BXF3 434-538 limits assumed): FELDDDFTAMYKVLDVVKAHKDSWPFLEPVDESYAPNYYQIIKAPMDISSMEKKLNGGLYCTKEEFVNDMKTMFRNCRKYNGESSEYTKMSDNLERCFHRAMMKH
T17 sequence (Q8IZX4 1517-1626 limits assumed): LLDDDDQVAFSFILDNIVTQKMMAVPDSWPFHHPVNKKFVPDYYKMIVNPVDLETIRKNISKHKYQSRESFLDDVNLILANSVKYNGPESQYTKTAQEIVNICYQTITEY
T5 sequence (Q9NPI1 131-235 limits assumed): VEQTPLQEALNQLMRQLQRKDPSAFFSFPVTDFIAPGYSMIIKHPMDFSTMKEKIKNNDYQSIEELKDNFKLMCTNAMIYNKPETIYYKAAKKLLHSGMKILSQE
T29 sequence (Q6PL18 980-1092 limits assumed): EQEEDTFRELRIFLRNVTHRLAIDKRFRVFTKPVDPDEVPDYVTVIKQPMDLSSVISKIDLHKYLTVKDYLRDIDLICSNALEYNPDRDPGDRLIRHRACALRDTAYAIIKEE
T16 sequence (P51531 1378-1506 limits assumed): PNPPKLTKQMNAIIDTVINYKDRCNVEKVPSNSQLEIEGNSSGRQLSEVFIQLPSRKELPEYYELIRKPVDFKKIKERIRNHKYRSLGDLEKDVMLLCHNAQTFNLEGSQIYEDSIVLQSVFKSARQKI
T7 sequence (P21675 1519-1628 limits assumed): as the sequence (Q8IZX4 1517-1626 limits assumed) above, with M46V, V51M, I102V, I107L counted along it
T25 sequence (Q15059 34-140 limits assumed): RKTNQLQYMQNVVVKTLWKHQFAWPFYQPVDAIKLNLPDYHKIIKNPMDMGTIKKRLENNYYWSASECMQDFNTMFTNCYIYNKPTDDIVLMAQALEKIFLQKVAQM
T2 sequence (O95696 562-666 limits assumed): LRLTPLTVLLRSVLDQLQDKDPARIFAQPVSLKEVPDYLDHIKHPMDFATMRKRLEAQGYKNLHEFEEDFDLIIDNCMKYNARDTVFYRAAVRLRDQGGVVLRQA
T6 sequence (Q86U86 653-763 limits assumed): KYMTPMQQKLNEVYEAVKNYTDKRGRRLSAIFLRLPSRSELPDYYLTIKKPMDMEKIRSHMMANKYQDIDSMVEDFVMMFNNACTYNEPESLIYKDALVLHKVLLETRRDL
T18 sequence (Q15059 306-415 limits assumed): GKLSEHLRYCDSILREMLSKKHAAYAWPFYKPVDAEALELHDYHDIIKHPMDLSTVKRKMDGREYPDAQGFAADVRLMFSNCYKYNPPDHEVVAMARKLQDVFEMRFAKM
T14 sequence (Q9H8M2 136-240 limits assumed): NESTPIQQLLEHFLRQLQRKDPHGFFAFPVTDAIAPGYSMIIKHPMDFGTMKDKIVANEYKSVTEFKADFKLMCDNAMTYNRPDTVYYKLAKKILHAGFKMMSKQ
T1 sequence (Q9H0E9 706-811 limits assumed): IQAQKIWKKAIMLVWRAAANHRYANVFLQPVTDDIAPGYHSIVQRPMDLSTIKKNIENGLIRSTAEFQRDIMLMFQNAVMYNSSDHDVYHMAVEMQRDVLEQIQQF
T20 sequence (Q9H0E9 1099-1207 limits assumed): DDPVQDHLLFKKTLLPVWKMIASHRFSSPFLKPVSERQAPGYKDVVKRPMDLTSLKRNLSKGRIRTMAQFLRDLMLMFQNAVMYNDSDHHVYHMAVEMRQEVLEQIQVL
T10 sequence (Q9ULI0 951-1066 limits assumed): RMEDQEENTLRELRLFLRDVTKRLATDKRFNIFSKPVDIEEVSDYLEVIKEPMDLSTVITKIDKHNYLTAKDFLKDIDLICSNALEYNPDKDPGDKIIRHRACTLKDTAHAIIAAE
T13 sequence (Q92830 728-832 limits assumed): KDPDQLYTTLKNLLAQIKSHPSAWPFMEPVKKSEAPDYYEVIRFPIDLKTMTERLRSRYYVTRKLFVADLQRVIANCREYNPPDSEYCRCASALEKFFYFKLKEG
T21 sequence (Q9UIF8 2060-2164 limits assumed): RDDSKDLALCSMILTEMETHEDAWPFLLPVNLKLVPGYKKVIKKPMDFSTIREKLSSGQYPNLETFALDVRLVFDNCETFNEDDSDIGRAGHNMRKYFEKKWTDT
T12 sequence (P55201 628-732 limits assumed): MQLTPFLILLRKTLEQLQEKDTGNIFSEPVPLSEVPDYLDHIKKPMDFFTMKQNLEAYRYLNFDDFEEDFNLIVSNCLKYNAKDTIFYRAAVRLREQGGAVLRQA
T19 sequence (Q9UIF9 1793-1897 limits assumed): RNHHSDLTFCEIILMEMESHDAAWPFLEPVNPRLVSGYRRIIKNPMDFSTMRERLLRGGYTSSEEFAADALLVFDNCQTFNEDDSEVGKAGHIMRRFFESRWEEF
T23 sequence (O15164 899-1004 limits assumed): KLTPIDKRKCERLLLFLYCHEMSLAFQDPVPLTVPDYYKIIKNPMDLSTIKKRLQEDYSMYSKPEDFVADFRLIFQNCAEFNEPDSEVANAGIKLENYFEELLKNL
T9 sequence (Q92831 723-827 limits assumed): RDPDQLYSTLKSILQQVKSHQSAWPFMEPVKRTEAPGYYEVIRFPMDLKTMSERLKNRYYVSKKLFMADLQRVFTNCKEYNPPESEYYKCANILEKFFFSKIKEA
T11 sequence (Q9NSI6 1313-1418 limits assumed): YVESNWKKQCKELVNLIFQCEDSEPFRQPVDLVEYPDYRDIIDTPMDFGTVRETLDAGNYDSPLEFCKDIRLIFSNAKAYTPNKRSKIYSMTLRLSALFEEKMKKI
T3 sequence (Q15059 24-416 limits assumed): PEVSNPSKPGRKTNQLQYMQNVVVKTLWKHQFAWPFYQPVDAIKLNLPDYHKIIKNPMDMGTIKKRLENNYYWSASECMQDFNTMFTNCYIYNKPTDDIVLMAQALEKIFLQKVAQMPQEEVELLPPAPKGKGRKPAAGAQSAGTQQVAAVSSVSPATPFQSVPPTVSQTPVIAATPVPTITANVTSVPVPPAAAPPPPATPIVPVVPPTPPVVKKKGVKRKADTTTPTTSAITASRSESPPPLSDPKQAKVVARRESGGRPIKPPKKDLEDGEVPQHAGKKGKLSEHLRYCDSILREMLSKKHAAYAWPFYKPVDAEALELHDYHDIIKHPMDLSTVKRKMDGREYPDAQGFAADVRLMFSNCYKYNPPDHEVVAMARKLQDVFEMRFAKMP
T26 sequence (Q9ULD4 589-693 limits assumed): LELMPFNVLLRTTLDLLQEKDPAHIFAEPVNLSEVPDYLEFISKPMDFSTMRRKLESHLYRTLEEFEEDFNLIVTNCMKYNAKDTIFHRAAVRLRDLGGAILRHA
T24 sequence (P51532 1453-1564 limits assumed): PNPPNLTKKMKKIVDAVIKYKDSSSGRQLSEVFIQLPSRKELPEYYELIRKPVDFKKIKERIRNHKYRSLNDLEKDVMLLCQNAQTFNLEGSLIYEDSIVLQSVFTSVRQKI
T15 sequence (O15164 824-1006 limits assumed): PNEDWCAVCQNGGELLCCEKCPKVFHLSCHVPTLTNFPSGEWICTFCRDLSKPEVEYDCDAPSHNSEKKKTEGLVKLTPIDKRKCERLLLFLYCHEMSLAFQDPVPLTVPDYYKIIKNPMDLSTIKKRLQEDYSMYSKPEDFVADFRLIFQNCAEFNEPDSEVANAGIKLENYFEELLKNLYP

SMILES: COc1cncc(-c2cc(Nc3cccc(F)c3)nc([C@@H]3CC[C@H](C)N(C(C)=O)C3)n2)c1 [Compound 00004]
- pKd (BRD8(1)): < 5.00
- pKd (BRD1): < 5.00
- pKd (BRD3(1, 2)): < 5.00
- pKd (BRDT(1, 2)): < 5.00
- pKd (BRD7): < 5.00
- pKd (PBRM1(5)): < 5.00
- pKd (TAF1(2)): < 5.00
- pKd (CECR2): < 5.00
- pKd (PCAF): < 5.00
- pKd (ATAD2B): < 5.00
- pKd (WDR9(2)): < 5.00
- pKd (BRPF1): < 5.00
- pKd (GCN5L2): < 5.00
- pKd (BRD9): < 5.00
- pKd (TRIM24(PHD, Bromo.)): < 5.00
- pKd (SMARCA2): < 5.00
- pKd (TAF1L(2)): < 5.00
- pKd (BRD3(2)): < 5.00
- pKd (BAZ2A): < 5.00
- pKd (BRD8(2)): < 5.00
- pKd (BAZ2B): < 5.00
- pKd (PBRM1(2)): < 5.00
- pKd (TRIM24(Bromo.)): < 5.00
- pKd (SMARCA4): < 5.00
- pKd (BRD3(1)): < 5.00
- pKd (BRPF3): < 5.00
- pKd (FALZ): < 5.00
- pKd (BRDT(2)): < 5.00
- pKd (ATAD2A): < 5.00
- pKd (BRDT(1)): < 5.00
- pEC50 (OPM-2): > 6.70
